Data from ChEMBL document CHEMBL4411296, “Design and development of Isatin-triazole hydrazones as potential inhibitors of microtubule affinity-regulating kinase 4 for the therapeutic management of cell proliferation and metastasis” (Eur J Med Chem, 2019).
Calls of active or inactive are those of the source. No cut-off for these calls is given here.

Tests used:
[1] = target: 5'-AMP-activated protein kinase catalytic subunit alpha-1 (Homo sapiens) (UniProt Q13131); experiment: Inhibition of AMPKA1 (unknown origin) at 10 uM after 60 mins by ADP-Glo luminescence assay
MDA-MB-435S [2] = experiment: Induction of apoptosis in human MDA-MB-435S cells assessed as necrotic cells at IC50 after 24 hrs by Annexin V-FITC/propidium iodide staining-based flow cytometric analysis (reference value: 0.64%); type: functional
HepG2 [3] = experiment: Induction of apoptosis in human HepG2 cells assessed as early apoptotic cells at IC50 after 24 hrs by Annexin V-FITC/propidium iodide staining-based flow cytometric analysis (reference value: […]); type: functional
MCF7 [4] = experiment: Antiproliferative activity against human MCF7 cells assessed as cell viability after 48 hrs by MTT assay; settings: MCF7, 48 h
[5] = target: Calcium/calmodulin-dependent protein kinase type II subunit beta (Homo sapiens) (UniProt Q13554); experiment: Inhibition of CAMK2 beta (unknown origin) at 10 uM after 60 mins by ADP-Glo luminescence assay
[6] = target: Ribosomal protein S6 kinase beta-1 (Homo sapiens) (UniProt P23443); experiment: Inhibition of S6K (unknown origin) at 10 uM after 60 mins by ADP-Glo luminescence assay
MCF7 [7] = experiment: Induction of apoptosis in human MCF7 cells assessed as necrotic cells at IC50 after 24 hrs by Annexin V-FITC/propidium iodide staining-based flow cytometric analysis (reference value: 0.27%); type: functional
[8] = target: Death-associated protein kinase 1 (Homo sapiens) (UniProt P53355); experiment: Inhibition of DAPK1 (unknown origin) at 10 uM after 60 mins by ADP-Glo luminescence assay
MDA-MB-435S [9] = experiment: cells; settings: Homo sapiens, 48 h
Description: Antiproliferative activity against human MDA-MB-435S cells assessed as cell viability after 48 hrs by MTT assay

HepG2 [10] = experiment: Induction of apoptosis in human HepG2 cells assessed as late apoptotic cells at IC50 after 24 hrs by Annexin V-FITC/propidium iodide staining-based flow cytometric analysis (reference value: 0.039%); type: functional
[11] = target: Calcium/calmodulin-dependent protein kinase type 1 (Homo sapiens) (UniProt Q14012); experiment: Inhibition of CAMKI (unknown origin) at 10 uM after 60 mins by ADP-Glo luminescence assay
[12] = target: Serine/threonine-protein kinase pim-1 (Homo sapiens) (UniProt P11309); experiment: Inhibition of PIM1 (unknown origin) at 10 uM after 60 mins by ADP-Glo luminescence assay
[13] = target: Serine/threonine-protein kinase D1 (Homo sapiens) (UniProt Q15139); experiment: Inhibition of PKCmu (unknown origin) at 10 uM after 60 mins by ADP-Glo luminescence assay
MDA-MB-435S [14] = experiment: Induction of apoptosis in human MDA-MB-435S cells assessed as viable cells at IC50 after 24 hrs by Annexin V-FITC/propidium iodide staining-based flow cytometric analysis (reference value: 98.8%); type: functional
[15] = target: Calcium/calmodulin-dependent protein kinase type IV (Homo sapiens) (UniProt Q16566); experiment: Inhibition of CAMK4 (unknown origin) at 10 uM after 60 mins by ADP-Glo luminescence assay
MCF7 [16] = experiment: Induction of ROS generation in human MCF7 cells at IC50 after 5 to 6 hrs by DCFDA staining-based spectroflourimetric analysis; type: functional, cell-based
[17] = target: Serine/threonine-protein kinase Chk1 (Homo sapiens) (UniProt O14757); experiment: Inhibition of CHK1 (unknown origin) at 10 uM after 60 mins by ADP-Glo luminescence assay
MDA-MB-435S [18] = experiment: Induction of apoptosis in human MDA-MB-435S cells assessed as early apoptotic cells at IC50 after 24 hrs by Annexin V-FITC/propidium iodide staining-based flow cytometric analysis (reference value: 0.36%); type: functional
MCF7 [19] = experiment: Antimigratory activity against human MCF7 cells at IC50 after 48 hrs by wound-healing assay; type: functional, cell-based
[20] = target: Calcium/calmodulin-dependent protein kinase type II subunit beta (Homo sapiens) (UniProt Q13554); experiment: Inhibition of CAMKII (unknown origin) at 10 uM after 60 mins by ADP-Glo luminescence assay
[21] = target: 5'-AMP-activated protein kinase subunit beta-1 (Homo sapiens) (UniProt Q9Y478); experiment: Inhibition of AMPKB1 (unknown origin) at 10 uM after 60 mins by ADP-Glo luminescence assay
[22] = target: Serine/threonine-protein kinase MARK1 (Homo sapiens) (UniProt Q9P0L2); experiment: Inhibition of MARK1 (unknown origin) at 10 uM after 60 mins by ADP-Glo luminescence assay
HepG2 [23] = experiment: Induction of ROS generation in human HepG2 cells at IC50 after 5 to 6 hrs by DCFDA staining-based spectroflourimetric analysis; type: functional, cell-based
[24] = target: Serine/threonine-protein kinase Chk2 (Homo sapiens) (UniProt O96017); experiment: Inhibition of CHK2 (unknown origin) at 10 uM after 60 mins by ADP-Glo luminescence assay
[25] = target: Serine/threonine-protein kinase 33 (Homo sapiens) (UniProt Q9BYT3); experiment: Inhibition of STK33 (unknown origin) at 10 uM after 60 mins by ADP-Glo luminescence assay
MDA-MB-435S [26] = experiment: Induction of apoptosis in human MDA-MB-435S cells assessed as late apoptotic cells at IC50 after 24 hrs by Annexin V-FITC/propidium iodide staining-based flow cytometric analysis (reference value: 0.18%); type: functional
HepG2 [27] = experiment: Induction of apoptosis in human HepG2 cells assessed as viable cells at IC50 after 24 hrs by Annexin V-FITC/propidium iodide staining-based flow cytometric analysis (reference value: 97.6%); type: functional
[28] = target: MAP kinase-activated protein kinase 2 (Homo sapiens) (UniProt P49137); experiment: Inhibition of MAPKAPK2 (unknown origin) at 10 uM after 60 mins by ADP-Glo luminescence assay
MCF7 [29] = experiment: Induction of apoptosis in human MCF7 cells assessed as late apoptotic cells at IC50 after 24 hrs by Annexin V-FITC/propidium iodide staining-based flow cytometric analysis (reference value: 0.077%); type: functional
HepG2 [30] = experiment: Antimigratory activity against human HepG2 cells at IC50 after 48 hrs by wound-healing assay; type: functional, cell-based
[31] = target: PAS domain-containing serine/threonine-protein kinase (Homo sapiens) (UniProt Q96RG2); experiment: Inhibition of PASK (unknown origin) at 10 uM after 60 mins by ADP-Glo luminescence assay
HepG2 [32] = experiment: Antiproliferative activity against human HepG2 cells assessed as cell viability after 48 hrs by MTT assay; settings: HepG2, 48 h

Chain of Calcium/calmodulin-dependent protein kinase type II subunit beta (Homo sapiens) (Q13554 whole entry): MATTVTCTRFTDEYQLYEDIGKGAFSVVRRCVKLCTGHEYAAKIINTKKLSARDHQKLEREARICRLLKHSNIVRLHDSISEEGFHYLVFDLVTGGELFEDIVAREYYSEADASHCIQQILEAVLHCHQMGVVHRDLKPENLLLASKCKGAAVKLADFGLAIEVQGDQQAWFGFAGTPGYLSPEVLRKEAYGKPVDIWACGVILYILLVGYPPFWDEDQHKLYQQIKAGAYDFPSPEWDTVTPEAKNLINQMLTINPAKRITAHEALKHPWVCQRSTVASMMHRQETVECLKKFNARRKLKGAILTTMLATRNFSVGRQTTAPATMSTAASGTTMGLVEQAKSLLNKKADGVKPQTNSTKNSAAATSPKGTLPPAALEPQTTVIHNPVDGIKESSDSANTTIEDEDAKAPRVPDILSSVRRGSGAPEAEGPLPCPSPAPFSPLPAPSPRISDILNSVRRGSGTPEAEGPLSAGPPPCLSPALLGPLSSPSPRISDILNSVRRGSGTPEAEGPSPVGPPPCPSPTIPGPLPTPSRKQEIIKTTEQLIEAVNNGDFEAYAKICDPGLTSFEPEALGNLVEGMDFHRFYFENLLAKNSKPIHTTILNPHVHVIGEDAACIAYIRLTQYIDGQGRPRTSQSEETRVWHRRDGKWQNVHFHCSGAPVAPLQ
Chain of Serine/threonine-protein kinase MARK1 (Homo sapiens) (Q9P0L2 whole entry, looked up): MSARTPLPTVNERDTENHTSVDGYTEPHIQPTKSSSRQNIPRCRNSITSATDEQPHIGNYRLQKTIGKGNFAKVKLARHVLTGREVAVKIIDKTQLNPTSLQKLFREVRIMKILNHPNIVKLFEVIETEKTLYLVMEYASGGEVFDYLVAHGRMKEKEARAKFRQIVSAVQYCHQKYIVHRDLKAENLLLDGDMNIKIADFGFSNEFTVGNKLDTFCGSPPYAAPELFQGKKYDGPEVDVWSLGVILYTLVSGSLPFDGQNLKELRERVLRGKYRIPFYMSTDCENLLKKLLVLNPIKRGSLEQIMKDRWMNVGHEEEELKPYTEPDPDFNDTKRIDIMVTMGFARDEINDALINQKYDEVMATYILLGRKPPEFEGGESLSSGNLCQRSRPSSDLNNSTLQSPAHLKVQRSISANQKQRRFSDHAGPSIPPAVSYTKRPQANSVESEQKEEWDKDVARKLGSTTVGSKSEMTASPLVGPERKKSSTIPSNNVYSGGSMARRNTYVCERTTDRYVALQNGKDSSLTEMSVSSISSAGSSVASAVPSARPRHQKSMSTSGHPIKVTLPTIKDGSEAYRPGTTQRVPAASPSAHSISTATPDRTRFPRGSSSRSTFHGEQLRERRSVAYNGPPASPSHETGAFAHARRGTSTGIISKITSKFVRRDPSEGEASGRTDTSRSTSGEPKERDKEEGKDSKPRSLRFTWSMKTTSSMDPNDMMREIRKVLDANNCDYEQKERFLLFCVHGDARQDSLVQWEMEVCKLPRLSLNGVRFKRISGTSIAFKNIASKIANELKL
Chain of Serine/threonine-protein kinase Chk1 (Homo sapiens) (O14757 whole entry): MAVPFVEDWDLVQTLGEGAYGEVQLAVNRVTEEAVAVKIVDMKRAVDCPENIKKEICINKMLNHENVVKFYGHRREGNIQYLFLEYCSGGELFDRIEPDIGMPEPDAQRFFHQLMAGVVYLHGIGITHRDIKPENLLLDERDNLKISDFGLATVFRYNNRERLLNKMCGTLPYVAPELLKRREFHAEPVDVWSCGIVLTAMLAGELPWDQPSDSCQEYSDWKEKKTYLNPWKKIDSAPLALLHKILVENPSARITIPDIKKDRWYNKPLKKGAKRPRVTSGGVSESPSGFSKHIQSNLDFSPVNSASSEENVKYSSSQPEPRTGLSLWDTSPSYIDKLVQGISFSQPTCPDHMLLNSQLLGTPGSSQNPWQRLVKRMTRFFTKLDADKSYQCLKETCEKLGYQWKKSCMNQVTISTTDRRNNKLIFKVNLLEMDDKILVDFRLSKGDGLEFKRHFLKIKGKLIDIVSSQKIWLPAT
Chain of Serine/threonine-protein kinase D1 (Homo sapiens) (Q15139 whole entry): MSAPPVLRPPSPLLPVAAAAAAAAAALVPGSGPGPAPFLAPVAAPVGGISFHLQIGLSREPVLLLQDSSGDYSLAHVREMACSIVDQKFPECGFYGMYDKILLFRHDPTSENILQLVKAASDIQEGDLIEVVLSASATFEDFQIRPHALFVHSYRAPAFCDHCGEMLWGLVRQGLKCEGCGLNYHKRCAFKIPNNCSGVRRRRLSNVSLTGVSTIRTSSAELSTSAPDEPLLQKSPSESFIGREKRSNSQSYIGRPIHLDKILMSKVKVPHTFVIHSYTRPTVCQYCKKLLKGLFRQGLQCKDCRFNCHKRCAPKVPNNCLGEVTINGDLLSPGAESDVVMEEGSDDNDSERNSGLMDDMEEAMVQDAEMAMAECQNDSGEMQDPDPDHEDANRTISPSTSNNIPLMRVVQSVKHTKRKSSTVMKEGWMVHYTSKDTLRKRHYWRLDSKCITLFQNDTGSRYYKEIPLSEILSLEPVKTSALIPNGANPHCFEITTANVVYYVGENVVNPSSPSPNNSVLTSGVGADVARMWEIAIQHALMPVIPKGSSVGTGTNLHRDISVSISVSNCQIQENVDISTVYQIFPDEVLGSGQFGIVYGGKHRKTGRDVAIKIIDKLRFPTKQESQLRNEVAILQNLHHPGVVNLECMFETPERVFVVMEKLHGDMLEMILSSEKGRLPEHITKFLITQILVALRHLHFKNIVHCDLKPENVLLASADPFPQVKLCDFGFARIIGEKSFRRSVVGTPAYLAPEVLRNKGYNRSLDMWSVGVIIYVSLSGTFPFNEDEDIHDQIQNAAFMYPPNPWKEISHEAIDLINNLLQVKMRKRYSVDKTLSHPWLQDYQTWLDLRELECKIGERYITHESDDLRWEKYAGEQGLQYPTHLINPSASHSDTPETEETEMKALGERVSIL
Chain of Death-associated protein kinase 1 (Homo sapiens) (P53355 whole entry, looked up): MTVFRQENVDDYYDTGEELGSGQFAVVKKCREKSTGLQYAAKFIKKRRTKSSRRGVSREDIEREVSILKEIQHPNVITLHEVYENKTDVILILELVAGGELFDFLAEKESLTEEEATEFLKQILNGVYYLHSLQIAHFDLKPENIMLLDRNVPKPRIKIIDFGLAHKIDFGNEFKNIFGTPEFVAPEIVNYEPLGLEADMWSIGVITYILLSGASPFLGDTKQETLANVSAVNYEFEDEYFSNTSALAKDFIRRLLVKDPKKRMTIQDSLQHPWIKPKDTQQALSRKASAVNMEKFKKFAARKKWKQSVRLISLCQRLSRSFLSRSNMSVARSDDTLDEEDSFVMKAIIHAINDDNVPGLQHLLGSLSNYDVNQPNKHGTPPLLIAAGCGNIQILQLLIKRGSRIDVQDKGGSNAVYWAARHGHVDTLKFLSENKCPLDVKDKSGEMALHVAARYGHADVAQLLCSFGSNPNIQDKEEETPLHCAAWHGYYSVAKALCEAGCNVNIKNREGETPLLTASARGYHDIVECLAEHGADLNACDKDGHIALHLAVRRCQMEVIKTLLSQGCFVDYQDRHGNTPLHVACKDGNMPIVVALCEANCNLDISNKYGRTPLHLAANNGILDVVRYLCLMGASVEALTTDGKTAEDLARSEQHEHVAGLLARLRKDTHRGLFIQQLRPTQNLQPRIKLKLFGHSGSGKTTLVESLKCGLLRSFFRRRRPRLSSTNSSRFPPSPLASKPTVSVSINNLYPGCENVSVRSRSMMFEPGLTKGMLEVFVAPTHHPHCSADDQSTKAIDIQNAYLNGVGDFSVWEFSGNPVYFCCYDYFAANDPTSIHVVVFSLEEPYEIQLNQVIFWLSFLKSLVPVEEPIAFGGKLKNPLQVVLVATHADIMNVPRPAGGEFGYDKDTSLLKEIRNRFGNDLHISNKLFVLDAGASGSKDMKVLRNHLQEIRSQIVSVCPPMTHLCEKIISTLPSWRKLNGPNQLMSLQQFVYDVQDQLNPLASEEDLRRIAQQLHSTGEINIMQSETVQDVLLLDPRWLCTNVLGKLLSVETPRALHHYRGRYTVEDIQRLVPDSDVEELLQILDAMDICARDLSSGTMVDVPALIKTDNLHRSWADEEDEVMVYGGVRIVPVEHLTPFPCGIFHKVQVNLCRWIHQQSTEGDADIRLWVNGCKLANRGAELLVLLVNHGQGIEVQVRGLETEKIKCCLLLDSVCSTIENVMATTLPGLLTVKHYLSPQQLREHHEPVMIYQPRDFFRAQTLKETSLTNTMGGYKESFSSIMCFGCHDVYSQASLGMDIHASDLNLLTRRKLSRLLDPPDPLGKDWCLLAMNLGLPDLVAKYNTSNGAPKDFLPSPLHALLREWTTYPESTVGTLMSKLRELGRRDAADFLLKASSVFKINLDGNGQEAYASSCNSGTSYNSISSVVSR
Chain of Serine/threonine-protein kinase Chk2 (Homo sapiens) (O96017 whole entry): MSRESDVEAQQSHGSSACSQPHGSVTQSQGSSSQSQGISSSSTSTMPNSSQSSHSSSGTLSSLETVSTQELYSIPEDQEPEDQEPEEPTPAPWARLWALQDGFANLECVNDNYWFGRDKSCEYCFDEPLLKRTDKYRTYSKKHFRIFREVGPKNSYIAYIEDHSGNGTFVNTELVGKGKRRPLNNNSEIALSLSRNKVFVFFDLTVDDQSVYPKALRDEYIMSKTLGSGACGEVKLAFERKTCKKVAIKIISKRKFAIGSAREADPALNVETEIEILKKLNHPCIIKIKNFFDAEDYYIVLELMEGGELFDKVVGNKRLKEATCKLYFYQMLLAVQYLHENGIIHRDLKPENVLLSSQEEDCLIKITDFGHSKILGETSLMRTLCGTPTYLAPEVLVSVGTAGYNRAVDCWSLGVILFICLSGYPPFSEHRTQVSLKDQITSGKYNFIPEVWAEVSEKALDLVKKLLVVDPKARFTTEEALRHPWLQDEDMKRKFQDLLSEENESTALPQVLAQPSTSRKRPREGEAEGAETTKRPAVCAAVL

SMILES: COc1ccc(Cn2cc(C(=O)N/N=C3/C(=O)Nc4c(C)cccc43)nn2)cc1
- inhibition [1]: inactive
- Activity (MDA-MB-435S [2]): 0.59%
- Activity (HepG2 [3]): 37.3%
- IC50 (MCF7 [4]): 6.22 µM
- inhibition [5]: inactive
- inhibition [6]: inactive
- Activity (MCF7 [7]): 0.75%
- inhibition [8]: inactive
- IC50 (MDA-MB-435S [9]): 9.94 µM
- Activity (HepG2 [10]): 1.19%
- inhibition [11]: inactive
- inhibition [12]: inactive
- inhibition [13]: inactive
- Activity (MDA-MB-435S [14]): 66.3%
- inhibition [15]: inactive
- Activity (MCF7 [16]): Active
- inhibition [17]: inactive
- Activity (MDA-MB-435S [18]): 30.9%
- Activity (MCF7 [19]): Active
- inhibition [20]: inactive
- inhibition [21]: inactive
- inhibition [22]: inactive
- Activity (HepG2 [23]): Active
- inhibition [24]: inactive
- inhibition [25]: inactive
- Activity (MDA-MB-435S [26]): 2.24%
- Activity (HepG2 [27]): 59.4%
- inhibition [28]: inactive
- Activity (MCF7 [29]): 13.1%
- Activity (HepG2 [30]): Active
- inhibition [31]: inactive
- IC50 (HepG2 [32]): 8.14 µM
